Read-outs that look alike come from different tables or passages of the source.
Key:
[1] = Clearance of unbound injected Bn-DOTA in a tumor free mouse; assay type: in vivo; conditions: within four hours
Experimental: In a tumor free mouse, over 99% of unbound injected Bn-DOTA typically clears from the murine serum within four hours, with the vast majority of it being excreted in the urine within the first 30 minutes. In contrast, previous studies have shown that between 3 to 5% of directly labeled IgG will remain in the blood 48 hours after injection. (Azzopardi, N. et al. (2011) Clin Cancer Res 17, 6329-6337).

[2] = Blood and tumor activity after P53-BiDE(noHIS) and 177Lu-Bn-DOTA administration (FIG. 6A, 6D, 6E); assay type: in vivo, mice; conditions: 177Lu-Bn-DOTA only
Experimental: FIG. 6A to FIG. 6E depict pharmacokinetics of exemplary SADA-BiDE constructs in vivo. FIG. 6A depicts activity over time after P53-BiDE(noHIS) and Bn-DOTA administration. Each line represents one group, with three mice per group. Triangles denote a group that received P53-BiDE(noHIS) followed by clearing agent (CA) 72 hours later. Squares denote a group that received P53-BiDE(noHIS) without any clearing agent before ^177Lu-Bn-DOTA administration. Circles denote a group that only received ^177Lu-Bn-DOTA but not any SADA-BiDE. Dashed lines correspond to the measured blood activity, while solid lines correspond to the activity measured in the tumor. […] FIG. 6B depicts blood activity of radiolabeled 131I-SADA-BiDE in tumor-free mice. Activity measurements were normalized to the initial measurement for each group. Each line represents one group, with 4-5 mice per group. (+) symbols denote P53-BiDE, (X) symbols denote P63-BiDE and circles denote P73-BiDE. […]
Importantly, even though, as described in the previous examples, P53-BIDE(NOHIS), P53-BiDE, P63-BiDE and P73-BiDE is rapidly cleared from the serum, total tumor uptake of was not affected. With both 24 hours and 72 hours between P53-BIDE(NOHIS) and ^177Lu-Bn-DOTA injections, significant activity (˜15% ID/g) was measured at the tumor site (FIG. 6D) […]

[3] = 37° C., cited from earlier work

For `O=C(O)CN1CCN(CC(=O)O)CCN(CC(=O)O)C(Cc2ccccc2)CN(CC(=O)O)CC1` (stereo not shown) [Bn-DOTA, Benzyl-1,4,7,10-tetraazacyclododecane-1,4,7,10-tetraacetic acid, reference compound], the “unbound injected Bn-DOTA cleared from murine serum” value [1] was “over 99%” and the “tumor activity, Bn-DOTA alone without SADA-BiDE” value [2] was “no tumor activity was detected”.
For “Tetramerization domain of p53 (residues 321-359): Human p53 tetramerization domain (321-359), SADA domain; SEQ ID NO: 1”, the Kd ([3]; read-out: dissociation constant (KD), tetramers dissociating into dimers) is given as 150 nM and the Kd ([3]; read-out: dissociation constant of dimers into monomers) is given as 1 nM.

— patent US11583588B2, “Modular self assembly disassembly (SADA) technologies” (MEMORIAL SLOAN KETTERING CANCER CENTER, priority 2017, dated 2023)
